Test results from patent publication US11926826B2, “Twist signaling inhibitor compositions and methods of using the same” (City of Hope, priority 2016, dated 2024).

Columns and labels:
A2780R cells = test: Sulphorhodamine B cell survival assay with cisplatin, A2780R; format: cell-based; settings: without YTZ3-15-si494 treatment
Method: Sulphorhodamine B Cell Survival Assays. A2780R or Ovcar8-IP cells were plated in 6 well plates and allowed to adhere overnight. The following day, cells were transfected with siQ, si419, or si494 as described above—A2780R cells using YTZ3-15 and Ovcar8-IP cells using MSNs. After 48-72 hours, cells were transferred to 96 well plates at 5,000 cells per well and allowed to adhere overnight. The following day cells were treated with cisplatin at a series of concentrations (cells not treated with cisplatin served as controls). After 72 hours, cells were fixed in 10% trichloroacetic acid for 1 hour at 4° C., washed with water, and dried. Cells were stained in 0.4% sulphorhodamine B (SRB) in 1% acetic acid for 15 minutes at room temperature and then washed 3-4 times with 1% acetic acid until no further color was present in the wash. Any stray SRB on the walls of the wells was removed, and stained cells were dried for 10 minutes. SRB was solubilized in 10 mM Tris base and color intensity was quantified by absorbance at 570 nm. Each condition was normalized to its own untreated control.

TWIST1 = test: Western blotting of TWIST1 during cisplatin exposure; format: cell-based, human; settings: Ov8GFP-TWIST1 cells; 5 μM cisplatin over 24 hr
Method: (§1) Western blotting. Cells were pelleted and washed once with phosphate buffered saline (PBS), then lysed in RIPA buffer. Protein concentration was determined using a BCA assay (Thermo Fisher). Equal masses of protein were run on 4% stacking, 10% resolving polyacrylamide gels, and then transferred to PVDF membrane (GE Healthcare Bio-Sciences, Pittsburgh, PA) using the Trans-Blot SD Semi-Dry Transfer Cell (Bio-Rad). Membranes were blocked in dry milk dissolved in PBS with shaking for 1 hr at room temperature or overnight at 4° C. 3% BSA was used for blocking prior to select pAkt blots to reduce background signal. Primary and secondary antibodies were diluted as indicated below in 5% dry milk in PBS with 0.1-0.2% Tween-20. Incubation was performed at room temperature for one hr or overnight at 4° C. for primary, and at room temperature for one hr for secondary. Each antibody incubation was followed by five 5 min washes in PBS with 0.1% Tween-20. FemtoGlow HRP substrate (Michigan Diagnostics, Royal Oak, MI) and the Pxi4 chemiluminescent imager (Syngene, Frederick, MD) were used to acquire digital images. ECL 2 (Thermo Fisher) and Blue Devil Film (Genesee Scientific) were used to acquire film images. […] For select digital and film westerns, bands were quantified using GeneTools software from Syngene or Image Studio Lite from LiCor (Lincoln, NB), respectively, and normalized to β-Actin.

Akt = test: Western blotting of total Akt during cisplatin exposure; format: cell-based, human
Method: as §1

Ovcar8-IP tumors = test: Ovcar8-IP intraperitoneal tumor model in NSG mice, MSN-siRNA with or without cisplatin; format: in vivo
Method: Animal Studies. The animal studies conducted in these experiments were done in accordance with a protocol approved by the Institutional Animal Care and Use Committee at the City of Hope Beckman Research Institute. A total of 48 female NOD.Cg-Prkdc^scidIl2rg^tm1Wj1/SzJ (NSG) mice (The Jackson Laboratory, Bar Harbor, ME) were used. Ten week old (on average) mice were administered an intraperitoneal injection (IP) of 2.5×10^6 Ovcar8-IP cells in 200 μl of RPMI media. For all studies, mice were placed into four groups: MSN-siQ, MSN-siQ+cisplatin, MSN-si419H, and MSN-si419H+cisplatin (n=4 or n=8). Previous reports show no cellular uptake without MSNs^14, thus a siRNA-only group was not added to this study.
Bioluminescent imaging of mice (using Xenogen IVIS 100 biophotonic imaging system, STTARR, Toronto, Ontario, Canada) commenced seven days after injection of tumor cells in order to ensure engraftment, and continued once a week for four weeks. Mice were given a 100 μl IP injection of 20 mg/ml D-Luciferin (PerkinElmer, Waltham, MA). Ten minutes after the D-luciferin injection, mice were anesthetized with isoflurane (2%-5%) and placed in the biophotonic imager, and images were taken within two minutes. An alfalfa-free version of the regular rodent diet (alfalfa-free CA-1) was administered to the siQ mice to prevent autofluorescence from the regular diet.
IP injections of MSN+siRNA (siQ fluorescently labeled with ALEXAFLUOR® 647 or si419H) were conducted one week after the inoculation of Ovcar8-IP cells and done once or twice per week for a total of four weeks. Mice received 105 μl of 500 ng/μl MSN complexed with 15 μl of 10 μM siRNA per week, divided into one full or two half doses (n=4 and n=8, respectively). This is equivalent to […] MSN/week. Weekly 3 mg/kg IP cisplatin injections were given starting two weeks after initial inoculation of cells.
At completion of the experiment, all animals were euthanized via CO2 asphyxiation. […]
Statistics. All in vivo data was analyzed using one-way ANOVA with correction for multiple comparisons, comparing all groups to MSN-siQ treatment group. […]

Phospho Akt (Ser473) = test: Western blotting of Akt phosphorylated at Ser 473 during cisplatin exposure; format: cell-based, human; settings: 24 hr
Method: as §1

N.N.[Cl][Pt][Cl] [cisplatin]
IC50 (A2780R cells): ~200 µM | increase in TWIST1 expression (TWIST1): up to 2.3 fold | increase in Akt levels (Akt; Ov8GFP-TWIST1 cells, siQ, 5 μM cisplatin over 24 hr): 150% | total Akt levels (Akt; Ov8GFP-sh492 cells, cisplatin over 24 hr): relatively constant | reduction of metastasis incidence (number of disseminated masses) (Ovcar8-IP tumors; FIG. 21B): approximately 50% | proportion of mice developing ascites (Ovcar8-IP tumors; n=4 per group): 2/4 | increase in proportion of Akt phosphorylated at Ser 473 (Phospho Akt (Ser473); Ov8GFP-TWIST1 cells, siQ, 5 μM cisplatin, normalized to total Akt): 128% | reduction in phosphorylated Akt (Phospho Akt (Ser473); Ov8GFP-sh492 cells, cisplatin): 63%
